Like-named read-outs stand apart in the source and are kept apart here.
How the values were obtained:
[1] = cited from earlier work
BC-2 cells = test: Effect on BC-2 cells growth curve (KSHV/EBV-infected); type: cell-based, human; conditions: 6 days
Description: (§1) The Glycyrrhizic acid (as ammonium salt supplied by Sigma) is dissolved in 25% of ethanol at 100 mM and adjusted to pH 6.8 with 1 N sodium hydroxide. The maximum inhibition activity with no effect on cell cycle is achieved with 4 mM, the dose-dependent range is within 2mM to 5mM.
(§2) BC-1 and BC-2 are cell lines established from two different HIV positive patients with non-Hodgkins lymphoma, specifically body cavity-based lymphomas. The cells are KSHV/EBV-infected and can be induced to enter lytic replication and viral production by treatment with TPA or with butyrate. These cells have an intact KSHV and EBV genomes and are ideal for KSHV and EBV isolation and study.(Cesarman, E. et al., Blood 1995 Oct.;86(7):2708-14.
(§3) The cells are treated for six days with alcohol 1%, glycyrrhizic acid 2 mM […], glycyrrhizic acid 3 mM and 4 mM in alcohol 0.5%, 0.75% and 1% respectively. After 6 days treatment cells growth decreased 50% using glycyrrhizic acid 2 mM and glycyrrhizic acid 3 mM. Cells growth decreased 80% using glycyrrhizic acid 4 mM.

BJAB cells = test: Effect on BJAB cells growth curve (KSHV negative control cells); type: cell-based, human; conditions: six days, 2 mM and 4 mM in alcohol 0.5% and 1%
Description: as §1
(§4) BJA-B is an Epstein-Barr virus (EBV)-negative lymphoblastoid cell line established from an African Burkift's lymphoma, KSHV negative cell line. See Menezes J, et al, Establishment and characterization of an Epstein-Barr virus (EBV)-negative lymphoblastoid B cell line (BJA-B) from an exceptional, EBV-genome-negative African Burkitt's lymphoma. Biomedicine 1975 Jul; 22 (4): 276-84. These cells are used as controls. Cells are cultured at concentration of 4×10^5/ml in RPMI with 20% of fetal calf serum in the presence or absence of different drug concentrations.
Cells are treated for six days with alcohol 0.5% and 1%, Glycyrrhizic acid 2 mM and 4 mM in alcohol 0.5% and 1% respectively. Glycyrrhizic acid has no effect on the cells proliferation.

BC-3 cells = test: Effect on BC-3 cells growth curve (latently KSHV-infected); type: cell-based, human
Description: as §1
BC-3 is a cell line established from a HIV negative patient with a primary effusion lymphoma. See Arvanitakis L, et al Establishment and characterization of a primary effusion (body cavity-based) lymphoma cell line (BC-3) harboring Kaposi's sarcoma-associated herpesvirus (KSHV/HHV-8) in the absence of Epstein-Barr virus. Blood 88:2648-2654, 1996. The cells are latently KSHV-infected, but lacks EBV, and can be induced to enter lytic replication and viral production by treatment with TPA or with butyrate. BC-3 has an intact KSHV genome and is suitable for the isolation and study of KSHV.
as §4
The cells are treated for six days with alcohol 0.5% and 1%, Glycyrrhizic acid 2 mM and 4 mM in alcohol 0.5% and 1% respectively. Cells growth is 50% inhibited by Glycyrrhizic acid 2 mM, while treatment with Glycyrrhizic acid 4 mM determines cell death.

Human β-actin = test: Northern blot of β-actin as control for total cellular mRNA transcription; type: cell-based
Description: (§5) Total RNA was extracted using RNAzol B (Tel-Test Inc., Friendswood, Tex.) according to the manufacturer's instructions, and Poly A+RNA was selected with Poly A+ Tract kit (Promega, Madison, Wis.). To eliminate any contaminating DNA, the RNA samples were treated with 2 U RNAse free DNAse (Promega).
(§6) For Northern blot analysis, […] of each mRNA sample was electrophoresed in 1.5% formaldehyde agarose gel and then transferred to a Gene Screen nylon membrane (Du Pont, Boston, Mass.) overnight with 20×SSC. Filters were UV-cross-linked to fix the RNA and hybridized at 42° C. with probes obtained by PCR amplification of KSHV cyclin, v-FLIP and LANA (orf 73) genes (20) and labeled by ^32P random priming (Amersham Life Science, Buckinghamshire, England). Human β-actin probe was used as a quantitative control to measure the total mRNA. Membranes were washed twice at room temperature and twice at 65° C. then exposed.
(§7) On the left side are indicated the probes used. On the right side are indicated the size of the transcripts. All probes correspond to viral latent genes, except the human b actin which is used as a quantitative control to measure the transcription of total cellular mRNA.
(§8) Lane 6 is the positive control.

BC-1 cells = test: Effect on BC-1 cells growth curve (KSHV/EBV-infected); type: cell-based, human; conditions: 6 days
Description: as §1, §2, §3

KSHV latent antigens = test: Immunofluorescence assay of BC-3 cells for latent KSHV antigens; type: cell-based, Kaposi's sarcoma-associated herpesvirus (KSHV); conditions: 4 mM, stained with KS patient serum (panel C)
Description: Secondary antibody FITC-conjugated F(ab′)2 fragment of rabbit antihuman IgG (DAKO, Carpinteria, Calif.) diluted 1:40 in MB was applied. Cell nuclei were counterstained for 5 min, in PBS containing 17 μM Dapi (4′-6′-diamino-2′-phenyidole dihydrochloride [Boehringer Mannheim Corp., Indianapolis, Ind.]), rinsed in TBST, mounted with Vectashield (Vector Lab. Inc., Burlingame, Calif.) and examined in a fluorescence microscope Axioplan2 (Zeiss, Germany). BC-3 cells were run in parallel as controls.
In panel C the BC-3 cells have been treated with glycyrrhizic acid 4 mM and stained with KS patient serum. In panel D BC-3 cells have been treated with glycyrrhizic acid 4 mM and stained with Dapi to localize the nuclei. Kaposi's Sarcoma patient serum is used primary antibody to stain the KSHV latent antigens.

[2] = system: KSHV cyclin, v-FLIP and LANA (orf 73) genes; test: Northern blot of viral latent genes transcription in BC-3 cells; type: cell-based, Kaposi's sarcoma-associated herpesvirus (KSHV); conditions: for effect on the viral latent genes transcription: BC-3 cells, six days
Description: as §5, §6, §7, §8

Compound	solubility ([1]; ammonia water, ethanol, glacial acetic acid)	cells growth decreased (BC-2 cells; 2 mM) [%]	cells growth decreased (BC-2 cells; 3 mM) [%]	cells growth decreased (BC-2 cells; 4 mM) [%]	solubility ([1]; hot water and alcohol)	effect on the cells proliferation (BJAB cells)	effect on cells growth (BC-3 cells; BC-3 cells, six days, 4 mM)	inhibition at 2000 µM (BC-3 cells; Homo sapiens, 144 h, BC-3 cells, six days, 2 mM, read-out: cells growth inhibited) [%]	KSHV infected cells killed (BC-3 cells; six days after treatment)	transcription of total cellular mRNA (b actin) (Human β-actin; BJA-B cells, six days, 2 mM and 4 mM (lanes 1-5))	effect on cellular mRNA (β actin) (Human β-actin; all samples, BJA-B and BC-3)	cells growth decreased (BC-1 cells; 2 mM) [%]	cells growth decreased (BC-1 cells; 3 mM) [%]	cells growth decreased (BC-1 cells; 4 mM) [%]	expression of latent viral antigens (KSHV latent antigens)	concentration of maximum inhibition activity with no effect on cell cycle [2] [mM]	effect on the viral latent genes transcription ([2]; 2 mM (lane 7))	effect on the viral latent genes transcription ([2]; 4 mM (lane 8))
CC1(C(=O)O)CCC2(C)CCC3(C)C(=CC(=O)C4C5(C)CCC(OC6OC(C(=O)O)C(O)C(O)C6OC6OC(C(=O)O)C(O)C(O)C6O)C(C)(C)C5CCC43C)C2C1.N.O.O.O.O.O (stereo not drawn) [Ammonium glycyrrhizinate pentahydrate]	soluble	–	–	–	–	–	–	–	–	–	–	–	–	–	–	–	–	–
CC1(C)[C@@H](O[C@H]2O[C@H](C(=O)O)[C@@H](O)[C@H](O)[C@H]2O[C@@H]2O[C@H](C(=O)O)[C@@H](O)[C@H](O)[C@H]2O)CC[C@]2(C)[C@H]3C(=O)C=C4[C@@H]5C[C@@](C)(C(=O)O)CC[C@]5(C)CC[C@@]4(C)[C@]3(C)CC[C@@H]12 [Glycyrrhizic acid]	–	50	50	80	freely soluble	no effect	cell death	50	completely killed	not inhibited	does not have any effect	50	50	80	inhibits the expression of latent viral antigens	4	does not show any effect	almost totally inhibited

— patent publication US20020091158A1, “Composition for and method of treatment using triterpenoids” (priority 1999, published 2002)
